Reference: PMC7827406, “Structure–Activity Relationship (SAR) Study of Spautin-1 to Entail the Discovery of Novel NEK4 Inhibitors” (International Journal of Molecular Sciences, 2021)
Like-named read-outs stand apart in the source and are kept apart here.

Experiments:
Test in all cases: biochemical
Set-up in all cases: Eurofins KinaseProfiler full panel at Km ATP, residual kinase activity (%) relative to DMSO
[1] = biological target: T1, CHK1(h) (Homo sapiens, UniProt O14757)
T1 construct: gene CHEK1
T1 sequence (O14757 1-476): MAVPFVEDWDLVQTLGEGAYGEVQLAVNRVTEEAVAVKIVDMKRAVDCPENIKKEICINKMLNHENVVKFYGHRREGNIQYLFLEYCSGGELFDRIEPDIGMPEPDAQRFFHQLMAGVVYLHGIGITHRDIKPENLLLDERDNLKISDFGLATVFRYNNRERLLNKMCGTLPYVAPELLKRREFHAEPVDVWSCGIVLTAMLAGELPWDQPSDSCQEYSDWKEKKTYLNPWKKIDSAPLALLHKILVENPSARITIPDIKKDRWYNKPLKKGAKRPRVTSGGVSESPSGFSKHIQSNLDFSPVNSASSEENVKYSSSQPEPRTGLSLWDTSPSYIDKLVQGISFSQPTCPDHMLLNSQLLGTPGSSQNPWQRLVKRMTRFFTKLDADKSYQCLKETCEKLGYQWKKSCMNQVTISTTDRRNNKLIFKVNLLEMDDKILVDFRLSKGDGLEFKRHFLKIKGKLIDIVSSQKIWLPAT
How it was run: (§1)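 Two 10 µM single-concentration screens were run: a competition-binding screen, in which DNA-tagged kinase bound to immobilized ligands was quantified by qPCR, and a radiometric activity panel at Km ATP. Each is expressed as residual kinase activity (%).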

[2] = biological target: T2, CaMKIß(h) (Homo sapiens, UniProt Q6P2M8)
T2 construct: gene PNCK
How it was run: as §1

[3] = biological target: EGFR(L858R)(h) (Homo sapiens, UniProt P00533, L858R)
How it was run: as §1

[4] = biological target: T3, MST3(h) (Homo sapiens, UniProt Q9Y6E0)
T3 construct: gene STK24
How it was run: as §1

[5] = biological target: T4, PKAcβ(h) (Homo sapiens, UniProt P22694)
T4 construct: gene PRKACB
How it was run: as §1

[6] = biological target: T5, PIP4K2a(h) (Homo sapiens, UniProt P48426)
T5 sequence (P48426 1-406): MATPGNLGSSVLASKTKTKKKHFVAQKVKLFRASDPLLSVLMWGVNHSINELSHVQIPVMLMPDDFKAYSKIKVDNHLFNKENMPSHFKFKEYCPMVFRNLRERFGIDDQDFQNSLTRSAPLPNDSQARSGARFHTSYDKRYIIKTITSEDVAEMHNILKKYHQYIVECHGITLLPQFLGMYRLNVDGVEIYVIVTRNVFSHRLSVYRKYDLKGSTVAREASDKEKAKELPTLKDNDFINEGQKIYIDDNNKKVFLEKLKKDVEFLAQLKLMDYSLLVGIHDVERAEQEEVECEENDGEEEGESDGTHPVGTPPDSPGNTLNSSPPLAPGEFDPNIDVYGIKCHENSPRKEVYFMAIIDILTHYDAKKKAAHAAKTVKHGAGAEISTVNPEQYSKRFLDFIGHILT
How it was run: as §1

[7] = biological target: T6, c-RAF(h) (Homo sapiens, UniProt P04049)
T6 construct: gene RAF1
How it was run: as §1

[8] = biological target: T7, JNK3(h) (Homo sapiens, UniProt P53779)
T7 construct: gene MAPK10
How it was run: as §1

[9] = biological target: EphA7(h) (Homo sapiens, UniProt Q15375)
How it was run: as §1

[10] = biological target: T8, Pim-2(h) (Homo sapiens, UniProt Q9P1W9)
T8 construct: gene PIM2
How it was run: as §1

[11] = biological target: PASK(h) (Homo sapiens, UniProt Q96RG2)
How it was run: as §1

[12] = read-out: Residual activity (%) 5ay
[13] = read-out: Residual activity (%) Spautin-1 5aa
[14] = read-out: Residual activity (%) 5at
[15] = read-out: Residual activity (%) 5as

T6 sequence (P04049 whole entry): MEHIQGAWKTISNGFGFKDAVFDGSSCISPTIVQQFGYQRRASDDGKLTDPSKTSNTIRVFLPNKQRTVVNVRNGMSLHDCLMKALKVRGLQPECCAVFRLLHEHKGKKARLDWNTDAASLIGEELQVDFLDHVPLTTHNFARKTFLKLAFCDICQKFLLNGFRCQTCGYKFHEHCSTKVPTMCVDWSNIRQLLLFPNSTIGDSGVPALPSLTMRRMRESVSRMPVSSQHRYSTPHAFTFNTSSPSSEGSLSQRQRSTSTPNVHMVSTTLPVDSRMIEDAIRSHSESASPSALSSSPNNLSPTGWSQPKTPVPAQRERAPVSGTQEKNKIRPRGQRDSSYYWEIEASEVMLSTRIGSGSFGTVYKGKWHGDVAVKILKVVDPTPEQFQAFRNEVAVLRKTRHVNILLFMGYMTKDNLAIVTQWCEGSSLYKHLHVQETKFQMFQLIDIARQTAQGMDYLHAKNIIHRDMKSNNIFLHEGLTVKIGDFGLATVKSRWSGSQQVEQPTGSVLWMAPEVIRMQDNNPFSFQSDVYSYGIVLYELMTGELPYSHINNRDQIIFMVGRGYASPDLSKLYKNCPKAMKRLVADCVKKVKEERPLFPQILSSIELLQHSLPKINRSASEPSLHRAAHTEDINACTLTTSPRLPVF
T2 sequence (Q6P2M8 whole entry): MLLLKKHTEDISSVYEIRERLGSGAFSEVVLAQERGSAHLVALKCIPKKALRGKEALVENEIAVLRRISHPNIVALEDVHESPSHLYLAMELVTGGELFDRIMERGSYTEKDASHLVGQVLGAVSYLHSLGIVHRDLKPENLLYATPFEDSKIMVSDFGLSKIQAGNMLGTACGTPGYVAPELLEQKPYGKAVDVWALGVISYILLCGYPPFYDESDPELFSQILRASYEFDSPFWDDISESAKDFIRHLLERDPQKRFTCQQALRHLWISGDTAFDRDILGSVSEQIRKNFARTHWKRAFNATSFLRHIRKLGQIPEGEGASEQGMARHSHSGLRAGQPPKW
Chain of EGFR(L858R)(h) (P00533 whole entry L858R): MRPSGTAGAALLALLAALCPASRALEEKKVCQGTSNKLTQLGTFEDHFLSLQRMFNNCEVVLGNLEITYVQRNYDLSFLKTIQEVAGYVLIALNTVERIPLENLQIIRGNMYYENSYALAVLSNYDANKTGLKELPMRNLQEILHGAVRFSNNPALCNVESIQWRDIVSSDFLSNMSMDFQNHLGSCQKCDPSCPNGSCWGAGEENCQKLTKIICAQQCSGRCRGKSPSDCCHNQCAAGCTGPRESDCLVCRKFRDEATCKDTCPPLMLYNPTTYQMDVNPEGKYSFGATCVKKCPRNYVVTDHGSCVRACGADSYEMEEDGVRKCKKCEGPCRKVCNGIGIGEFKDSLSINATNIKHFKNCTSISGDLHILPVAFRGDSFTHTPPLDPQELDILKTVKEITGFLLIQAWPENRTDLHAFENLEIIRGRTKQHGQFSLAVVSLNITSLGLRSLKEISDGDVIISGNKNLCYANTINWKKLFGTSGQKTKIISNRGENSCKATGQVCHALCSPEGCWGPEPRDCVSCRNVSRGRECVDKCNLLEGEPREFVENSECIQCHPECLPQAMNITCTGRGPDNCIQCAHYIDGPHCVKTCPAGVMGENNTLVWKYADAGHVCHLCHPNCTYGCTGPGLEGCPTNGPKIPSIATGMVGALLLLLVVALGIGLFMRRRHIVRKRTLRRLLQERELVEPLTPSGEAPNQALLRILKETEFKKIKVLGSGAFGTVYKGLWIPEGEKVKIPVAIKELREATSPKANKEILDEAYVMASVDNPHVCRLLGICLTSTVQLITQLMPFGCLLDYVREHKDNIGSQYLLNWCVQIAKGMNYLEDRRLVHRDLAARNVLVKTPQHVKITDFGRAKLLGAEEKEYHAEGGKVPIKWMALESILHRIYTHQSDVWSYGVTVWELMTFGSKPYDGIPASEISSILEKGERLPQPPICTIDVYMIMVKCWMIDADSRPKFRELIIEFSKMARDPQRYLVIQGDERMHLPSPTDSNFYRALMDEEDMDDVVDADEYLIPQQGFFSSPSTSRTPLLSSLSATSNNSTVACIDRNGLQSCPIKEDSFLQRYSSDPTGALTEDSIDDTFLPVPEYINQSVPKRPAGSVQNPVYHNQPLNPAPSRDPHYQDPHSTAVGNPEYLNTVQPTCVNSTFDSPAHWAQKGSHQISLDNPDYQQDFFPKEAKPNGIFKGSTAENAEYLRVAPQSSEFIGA
Chain of PASK(h) (Q96RG2 whole entry): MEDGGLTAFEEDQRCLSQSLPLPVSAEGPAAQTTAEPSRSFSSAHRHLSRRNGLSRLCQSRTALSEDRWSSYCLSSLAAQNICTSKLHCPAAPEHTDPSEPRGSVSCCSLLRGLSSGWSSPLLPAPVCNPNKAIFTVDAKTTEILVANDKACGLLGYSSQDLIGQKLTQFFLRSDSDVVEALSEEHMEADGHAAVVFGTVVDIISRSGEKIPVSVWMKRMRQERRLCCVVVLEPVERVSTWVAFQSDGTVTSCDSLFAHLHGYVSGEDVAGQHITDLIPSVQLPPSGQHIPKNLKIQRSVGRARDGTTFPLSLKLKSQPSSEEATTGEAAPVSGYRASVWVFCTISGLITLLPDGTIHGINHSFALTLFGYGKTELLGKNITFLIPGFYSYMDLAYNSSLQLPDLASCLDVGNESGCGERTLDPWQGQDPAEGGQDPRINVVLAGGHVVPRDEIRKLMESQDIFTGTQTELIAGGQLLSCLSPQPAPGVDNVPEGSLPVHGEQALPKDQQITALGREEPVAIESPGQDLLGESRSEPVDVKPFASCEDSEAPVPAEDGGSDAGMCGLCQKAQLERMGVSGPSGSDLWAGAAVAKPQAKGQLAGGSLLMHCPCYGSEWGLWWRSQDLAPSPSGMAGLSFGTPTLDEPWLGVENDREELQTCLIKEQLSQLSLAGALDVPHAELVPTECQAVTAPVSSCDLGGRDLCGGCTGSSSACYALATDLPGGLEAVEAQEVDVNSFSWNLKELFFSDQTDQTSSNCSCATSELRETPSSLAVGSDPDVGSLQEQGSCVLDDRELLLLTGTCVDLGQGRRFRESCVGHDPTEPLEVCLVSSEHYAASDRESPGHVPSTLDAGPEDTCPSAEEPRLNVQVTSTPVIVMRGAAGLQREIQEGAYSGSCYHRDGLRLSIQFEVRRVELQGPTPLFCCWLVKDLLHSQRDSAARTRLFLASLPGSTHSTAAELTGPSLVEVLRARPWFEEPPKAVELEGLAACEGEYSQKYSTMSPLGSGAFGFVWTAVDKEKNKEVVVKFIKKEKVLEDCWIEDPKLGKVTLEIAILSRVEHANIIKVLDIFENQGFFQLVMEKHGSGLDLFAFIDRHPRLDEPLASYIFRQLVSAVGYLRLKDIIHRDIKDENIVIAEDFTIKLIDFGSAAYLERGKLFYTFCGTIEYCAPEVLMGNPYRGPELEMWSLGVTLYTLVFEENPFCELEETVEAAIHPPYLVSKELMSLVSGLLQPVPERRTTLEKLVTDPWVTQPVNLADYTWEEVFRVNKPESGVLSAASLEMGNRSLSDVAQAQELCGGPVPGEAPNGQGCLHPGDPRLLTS
T8 sequence (Q9P1W9 whole entry): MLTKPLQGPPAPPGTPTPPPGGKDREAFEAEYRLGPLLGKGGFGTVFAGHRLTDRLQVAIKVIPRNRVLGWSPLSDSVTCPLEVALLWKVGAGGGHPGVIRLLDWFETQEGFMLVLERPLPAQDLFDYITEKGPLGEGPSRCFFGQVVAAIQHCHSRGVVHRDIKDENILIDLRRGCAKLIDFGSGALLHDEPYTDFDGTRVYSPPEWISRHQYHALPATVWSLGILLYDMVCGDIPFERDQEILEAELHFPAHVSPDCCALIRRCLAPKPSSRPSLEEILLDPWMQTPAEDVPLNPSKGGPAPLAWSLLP
T7 sequence (P53779 whole entry): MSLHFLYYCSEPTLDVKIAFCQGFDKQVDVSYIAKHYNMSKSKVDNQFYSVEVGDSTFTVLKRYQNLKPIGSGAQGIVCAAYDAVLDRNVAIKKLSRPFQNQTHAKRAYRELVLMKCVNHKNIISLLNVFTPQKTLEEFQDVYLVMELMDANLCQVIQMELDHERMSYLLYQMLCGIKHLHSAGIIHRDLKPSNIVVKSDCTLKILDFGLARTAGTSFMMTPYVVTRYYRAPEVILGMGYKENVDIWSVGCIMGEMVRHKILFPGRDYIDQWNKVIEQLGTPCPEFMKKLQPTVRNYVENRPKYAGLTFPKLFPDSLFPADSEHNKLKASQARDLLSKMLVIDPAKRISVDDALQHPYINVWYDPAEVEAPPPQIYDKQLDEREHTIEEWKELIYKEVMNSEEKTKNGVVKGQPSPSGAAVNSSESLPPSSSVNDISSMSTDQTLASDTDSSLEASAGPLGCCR
T3 sequence (Q9Y6E0 whole entry): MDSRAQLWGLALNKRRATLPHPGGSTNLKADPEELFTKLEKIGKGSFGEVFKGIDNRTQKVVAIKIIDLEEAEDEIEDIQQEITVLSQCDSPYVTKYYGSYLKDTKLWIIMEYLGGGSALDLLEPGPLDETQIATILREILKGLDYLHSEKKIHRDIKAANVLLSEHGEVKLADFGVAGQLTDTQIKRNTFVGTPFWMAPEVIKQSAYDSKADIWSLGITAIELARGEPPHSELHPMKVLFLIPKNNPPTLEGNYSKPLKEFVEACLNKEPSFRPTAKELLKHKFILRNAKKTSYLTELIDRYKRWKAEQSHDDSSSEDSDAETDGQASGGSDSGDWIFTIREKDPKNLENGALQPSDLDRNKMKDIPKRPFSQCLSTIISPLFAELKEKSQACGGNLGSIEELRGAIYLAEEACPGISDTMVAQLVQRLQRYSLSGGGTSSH

COc1ccc2ncnc(Nc3cccc(F)c3)c2c1 [5ay, N-(3-Fluorophenyl)-6-Methoxy-4-Quinazolinamine]
remaining activity at 10 µM [1, 12]: 76%
remaining activity at 10 µM [2, 12]: 92%
remaining activity at 10 µM [3, 12]: 3%
remaining activity at 10 µM [4, 12]: 86%
remaining activity at 10 µM [5, 12]: 85%
remaining activity at 10 µM [6, 12]: 102%
remaining activity at 10 µM [7, 12]: 102%
remaining activity at 10 µM [8, 12]: 90%
remaining activity at 10 µM [9, 12]: 90%
remaining activity at 10 µM [10, 12]: 76%
remaining activity at 10 µM [11, 12]: 65%

Fc1ccc(CNc2ncnc3ccc(F)cc23)cc1 [5aa, 6-Fluoro-N-(4-fluorobenzyl)-4-Quinazolinamine]
remaining activity at 10 µM [1, 13]: 80%
remaining activity at 10 µM [2, 13]: 85%
remaining activity at 10 µM [3, 13]: 23%
remaining activity at 10 µM [4, 13]: 80%
remaining activity at 10 µM [5, 13]: 87%
remaining activity at 10 µM [6, 13]: 93%
remaining activity at 10 µM [7, 13]: 110%
remaining activity at 10 µM [8, 13]: 90%
remaining activity at 10 µM [9, 13]: 100%
remaining activity at 10 µM [10, 13]: 80%
remaining activity at 10 µM [11, 13]: 66%

Fc1ccc2ncnc(NCCc3ccc(Cl)cc3)c2c1 [5at, N-[2-(4-Chlorophenyl)Ethyl]-6-Fluoro-4-Quinazolinamine]
remaining activity at 10 µM [1, 14]: 73%
remaining activity at 10 µM [2, 14]: 81%
remaining activity at 10 µM [3, 14]: 60%
remaining activity at 10 µM [4, 14]: 74%
remaining activity at 10 µM [5, 14]: 107%
remaining activity at 10 µM [6, 14]: 92%
remaining activity at 10 µM [7, 14]: 117%
remaining activity at 10 µM [8, 14]: 107%
remaining activity at 10 µM [9, 14]: 87%
remaining activity at 10 µM [10, 14]: 70%
remaining activity at 10 µM [11, 14]: 30%

Fc1ccc(CCNc2ncnc3ccc(F)cc23)cc1 [5as, 6-Fluoro-N-[2-(4-Fluorophenyl)Ethyl]-4-Quinazolinamine]
remaining activity at 10 µM [1, 15]: 69%
remaining activity at 10 µM [2, 15]: 84%
remaining activity at 10 µM [3, 15]: 37%
remaining activity at 10 µM [4, 15]: 89%
remaining activity at 10 µM [5, 15]: 97%
remaining activity at 10 µM [6, 15]: 96%
remaining activity at 10 µM [7, 15]: 114%
remaining activity at 10 µM [8, 15]: 98%
remaining activity at 10 µM [9, 15]: 84%
remaining activity at 10 µM [10, 15]: 73%
remaining activity at 10 µM [11, 15]: 44%
